“Also recorded” adds a separate entry of the source.
Legend:
[1] = system: SMT-F tumor; test: In vivo antitumor (photodynamic) activity, SMT-F tumors in DBA/2 mice; set-up: species or system DBA/2 Ha-DD mouse; settings: for Tumor response (nonpalpable tumor), 1-2 d / Tumor response (nonpalpable tumor), 7 d / Tumor response (nonpalpable tumor), 30 d: 1.0 mg/kg i.v., light 3 h after injection; for Tumor response (nonpalpable tumor), 1-2 d: day 1-2; for Tumor response (nonpalpable tumor), 7 d: day 7; for Tumor response (nonpalpable tumor), 30 d: day 30; for antitumor / photosensitizing activity: 1.0 mg/kg, light 3 h post i.v. injection where stated; for in vivo photosensitizing efficacy / antitumor activity compared with BPD: mice, compared with BPD (mixture of 21 and 22); for tumorcidal activity: similar doses and treatment conditions
Experimental: Tumor Response and Foot Response Experiments: For tumor response experiments (see Table 3), a 1mm^3 piece of SMT-F tumor from a donor DBA/2 Ha-DD mouse was implanted subcutaneously with a trocar into the axilla of a 5-7 week old female DBA/2 Ha-DD mouse. When the tumor had grown to about 4mm diameter, mice were injected intravenously (i.v.) with photosensitizers at various doses. At various time after injection, mice were restrained in Plexiglas® holders and each tumor was illuminated with 135 J/cm^2 light from a dye laser 171 (spectra physics). The light dose rate was 75 mW/cm^2 as measured with a PTR Optics […]. The percentage of short term control (non-palpable tumors) was recorded daily. For our study 6 mice/group were used.
(§1) In vivo Biological Activity: The in vivo photosensitizing ability of all the sensitizers was compared with that of commercial BPD in DBA/2 mice bearing subcutaneously implanted SMT-F tumors, a method previously described by Dougherty et al. All photosensitizers, including commercial BPD (mixture of 21 and 22) were first dissolved in a minimum quantity of Tween 80 and then diluted with 0.9% saline, to a final concentration of 1% Tween 80.
(§2) It can be seen from Table 3 that commercial BPD was quite effective at a dose of 5.0 mg/kg, 3 h post i.v. injection (4 out of six mice were tumor free at day 30). […] However, replacement of the vinyl with a 1-hexyloxyethyl group induced a remarkable difference in photosensitizing activity.

[2] = system: SMT-F tumor; test: as above; set-up: species or system DBA/2 Ha-DD mouse; settings: 5.0 mg/kg i.v., light 24 h after injection
[3] = Electronic absorption, red absorption maximum; assay type: physicochemical; settings: for red shift in the absorption spectra: electron-withdrawing groups on macrocycle; for strong absorption in the red: formyl-BPDs
Experimental: M.p.s were measured on a Thomas/Bristoline microscopic hot stage apparatus and were uncorrected. Silica gel 60 (70-230 and 230-400 mesh, Merck) or neutral alumina (Merck; usually Brockmann Grade III, i. e., deactivated with 6% water) were used for column chromatography. Preparative thin layer chromatography was carried out on 20×20 cm glass plates coated with Merck G 254 silica gel (1 mm thick). Analytical thin layer chromatography (TLC) was performed using merck 60 F254 silica gel (precoated sheets, 0.2 mm thick). Reactions were monitored by TLC and spectrophotometry and were carried out under nitrogen and in the dark. ^1 HNMR spectra were obtained in deuteriochloroform solution at 300 MHz using a General Electric QE300 spectrometer; chemical shifts are expressed in ppm relative to chloroform (7.258 ppm). Elemental analyses were performed at the Midwest Microlab, Ltd., Indiana, USA. Unless stated otherwise, electronic absorption spectra were measured in dichloromethane solution using a Hewlett-Packard 8450A spectrophotometer. Mass spectra were obtained at the Mass Spectrometry Facility, University of California, San Francisco and at the Department of Biophysics, Roswell Park Cancer Institute, Buffalo.

[4] = Solubility of photosensitizers; assay type: physicochemical; settings: Tween 80, then 0.9% saline (1% Tween 80)
Source text: as §1, §2

| Compound | antitumor / photosensitizing activity [1] | in vivo photosensitizing efficacy / antitumor activity compared with BPD [1] | tumorcidal activity [1] | other results |
| --- | --- | --- | --- | --- |
| 3-(1-Hexyloxyethyl)benzoporphyrin Derivative [Compound 35] | active; also recorded: good antitumor activity | significantly more active than the industrially prepared benzoporphyrin derivative; also recorded: better photosensitizing efficacy than benzoporphyrin derivative monocarboxylic acid; also recorded: better anti-tumor activity than BPD-MA |  | Tumor response (nonpalpable tumor), 1-2 d [1]: 6/6; Tumor response (nonpalpable tumor), 7 d [1]: 6/6; Tumor response (nonpalpable tumor), 30 d [1]: 2/6 |
| 3-(1-Hexyloxyethyl)benzoporphyrin Derivative [Compound 45] | active | significantly more active than the industrially prepared benzoporphyrin derivative; also recorded: better photosensitizing efficacy than benzoporphyrin derivative monocarboxylic acid; also recorded: better anti-tumor activity than BPD-MA |  | Tumor response (nonpalpable tumor), 1-2 d [1]: 6/6; Tumor response (nonpalpable tumor), 7 d [1]: 4/6; Tumor response (nonpalpable tumor), 30 d [1]: 0/6; Tumor response (nonpalpable tumor), 1-2 d ([2]; day 1-2): 6/6; Tumor response (nonpalpable tumor), 7 d ([2]; day 7): 6/6; Tumor response (nonpalpable tumor), 30 d ([2]; day 30): 0/6 |
| CCCCCCOC(C)C1=C(C)c2cc3[nH]c(cc4nc(cc5[nH]c(cc1n2)c(C)c5CCC(=O)OC)C(CCC(=O)OC)=C4C)C1(C)C3=CC=C(C(=O)OC)C1C(=O)OC (mixture of isomers) [Compound 27, 8-(1-Hexyloxyethyl)benzoporphyrin Derivative] | active; also recorded: good antitumor activity | significantly more active than the industrially prepared benzoporphyrin derivative; also recorded: better photosensitizing efficacy than benzoporphyrin derivative monocarboxylic acid; also recorded: better anti-tumor activity than BPD-MA |  | absorption maximum wavelength ([3]; maximum red absorption peak, Table 3): 676 nm; Tumor response (nonpalpable tumor), 1-2 d [1]: 6/6; Tumor response (nonpalpable tumor), 7 d [1]: 4/6; Tumor response (nonpalpable tumor), 30 d [1]: 1/6 |
| COC(=O)CCC1=C(C)c2cc3[nH]c(cc4nc(cc5[nH]c(cc1n2)c(CCC(=O)OC)c5C)C(C=CC(C)C1=C(C)c2cc5[nH]c(cc6nc(cc7[nH]c(cc1n2)c(C)c7CCC(=O)OC)C(CCC(=O)OC)=C6C)C1(C)C5=CC=C(C(=O)OC)C1C(=O)OC)=C4C)C1=CC=C(C(=O)OC)C(C(=O)OC)C13C (mixture of isomers) [Compound 46, Bis-Benzoporphyrin] |  |  | did not show any significant tumorcidal activity |  |
| C=CC1=C(C)c2cc3[nH]c(cc4nc(cc5[nH]c(cc1n2)c(C)c5CCC(=O)OC)C(CCC(=O)OC)=C4C)C1(C)C3=CC=C(C(=O)OC)C1C(=O)OC (stereo not drawn) [Compound 20, 8-vinylbenzoporphyrin Derivative] | activity similar to BPD |  |  |  |
| COC(=O)CCC1=C(C)c2cc3[nH]c(cc4nc(cc5[nH]c(cc1n2)c(CCC(=O)OC)c5C)C(C(C)=O)=C4C)C1=CC=C(C(=O)OC)C(C(=O)OC)C13C (stereo not drawn) [Compound 23, 8-Acetylbenzoporphyrin Derivative] | inactive | failed to improve their photosensitizing efficacy | did not show any significant tumorcidal activity | ease of dissolution [4]: difficult to dissolve; red shift in the absorption spectra [3]: significant red shift in the absorption spectra |
| CCC1=C(C)c2cc3[nH]c(cc4nc(cc5[nH]c(cc1n2)c(C)c5CCC(=O)OC)C(CCC(=O)OC)=C4C)C1(C)C3=CC=C(C(=O)OC)C1C(=O)OC (stereo not drawn) [Compound 25, 8-Ethylbenzoporphyrin Derivative] |  |  | did not show any significant tumorcidal activity |  |
| COC(=O)CCC1=C(C)c2cc3[nH]c(cc4nc(cc5[nH]c(cc1n2)c(CCC(=O)OC)c5C)C(C=O)=C4C)C1=CC=C(C(=O)OC)C(C(=O)OC)C13C (stereo not drawn) [Compound 26, 8-Formylbenzoporphyrin Derivative] |  |  | did not show any significant tumorcidal activity | strong absorption in the red [3]: 696 nm |
| C=CC1=C(C)c2cc3[nH]c(cc4nc(cc5[nH]c(cc1n2)C1(C)C5=CC=C(C(=O)OC)C1C(=O)OC)C(C)=C4CCC(=O)OC)c(CCC(=O)OC)c3C (stereo not drawn) [Compound 28, 3-Vinylbenzoporphyrin Derivative] | activity similar to BPD |  |  |  |
| COC(=O)CCC1=C(C)c2cc3[nH]c(cc4nc(cc5[nH]c(cc1n2)c(CCC(=O)OC)c5C)C(C)=C4C(C)=O)C1(C)C3=CC=C(C(=O)OC)C1C(=O)OC (stereo not drawn) [Compound 31, 3 -Acetylbenzoporphyrin Derivative] | inactive | failed to improve their photosensitizing efficacy | did not show any significant tumorcidal activity | ease of dissolution [4]: difficult to dissolve; red shift in the absorption spectra [3]: significant red shift in the absorption spectra |
| CCC1=C(C)c2cc3[nH]c(cc4nc(cc5[nH]c(cc1n2)C1(C)C5=CC=C(C(=O)OC)C1C(=O)OC)C(C)=C4CCC(=O)OC)c(CCC(=O)OC)c3C (stereo not drawn) [Compound 33, 2-Ethylbenzoporphyrin Derivative] |  |  | did not show any significant tumorcidal activity |  |
| COC(=O)CCC1=C(C)c2cc3[nH]c(cc4nc(cc5[nH]c(cc1n2)c(CCC(=O)OC)c5C)C(C)=C4C=O)C1(C)C3=CC=C(C(=O)OC)C1C(=O)OC (stereo not drawn) [Compound 34, 3-Formylbenzoporphyrin Derivative] |  |  | did not show any significant tumorcidal activity | strong absorption in the red [3]: 696 nm |
| C=CC1=C(C)c2cc3[nH]c(cc4nc(cc5[nH]c(cc1n2)c(C)c5CCC(=O)OC)C(CCC(=O)OC)=C4C)C1(C)C3=CC=C(C(=O)OC)C1C(=O)OC (stereo not drawn) [Compound 36, 8-Vinylbenzoporphyrin Derivative] | activity similar to BPD |  |  |  |
| COC(=O)CCC1=C(C)c2cc3[nH]c(cc4nc(cc5[nH]c(cc1n2)c(CCC(=O)OC)c5C)C(C(C)=O)=C4C)C1=CC=C(C(=O)OC)C(C(=O)OC)C13C (stereo not drawn) [Compound 37, 8-Acetylbenzoporphyrin Derivative] | inactive | failed to improve their photosensitizing efficacy |  | ease of dissolution [4]: difficult to dissolve; red shift in the absorption spectra [3]: significant red shift in the absorption spectra |
| C=CC1=C(C)c2cc3[nH]c(cc4nc(cc5[nH]c(cc1n2)C1(C)C5=CC=C(C(=O)OC)C1C(=O)OC)C(C)=C4CCC(=O)OC)c(CCC(=O)OC)c3C (stereo not drawn) [Compound 41, 3-Vinyl-BPD] | activity similar to BPD |  |  |  |
| COC(=O)CCC1=C(C)c2cc3[nH]c(cc4nc(cc5[nH]c(cc1n2)c(CCC(=O)OC)c5C)C(C)=C4C(C)=O)C1(C)C3=CC=C(C(=O)OC)C1C(=O)OC (stereo not drawn) [Compound 42, 3 -Acetylbenzoporphyrin Derivative] | inactive | failed to improve their photosensitizing efficacy |  | ease of dissolution [4]: difficult to dissolve; red shift in the absorption spectra [3]: significant red shift in the absorption spectra |

Reference: patent US5498710A, “Alkyl ether analogues of benzoporphyrin derivatives” (Health Research, Inc., priority 1994, dated 1996)
